Data from patent US20230320967A1, “COMPOSITION, USE OF THE COMPOSITION, COSMETIC METHOD FOR MODULATING THE PRODUCTION OF SEBUM” (CHEMYUNION LTDA., priority 2020, published 2023).
Peptide text beside a SMILES is read from it.

Experiments:
SEBO662AR cell model [1] = experiment: Sebum production inhibition in SEBO662AR sebocyte model, androgen-free lipogenic medium, Bodipy lipid droplet imaging; assay type: cell-based, human; conditions: 500 micromolar, comparable to cerulenin 10 micromolar
Description: Sebocytes are cells found in the sebaceous glands and that, in the differentiation process, accumulate lipid droplets in their interior. The SEBO662AR cell model is an immortalized lineage of human sebocytes that responds to lipogenic stimuli and that can be used to select potential sebum production inhibitors.
A sebum production inhibition study was conducted in the SEBO662AR cell model cultivated in androgen-free lipogenic medium, and the formation of droplets was monitored by using Bodipy® fluorescent probes and image analysis. As an inhibition reference, cerulenin was applied at a concentration of 10 micromolar—a fatty acid synthase inhibitor which, although effective in reducing sebum production, is a very labile molecule as it has unsaturations and an epoxy group in its structure, so that its use is restricted to laboratory testing.

SEBO662AR cell model [2] = experiment: Cytotoxicity in vitro (non-cytotoxic concentration); assay type: cell-based, human; conditions: SEBO662AR study
[3] = system: skin oiliness (sebum) of female volunteers with mixed or oily skin; experiment: Clinical testing: face oiliness by sebum-metric index, Sebumeter SM 815; assay type: in vivo, human; conditions: 0.01% w/w in cosmetic base (BC-tripeptide), twice a day, 20 female volunteers
Description: For the clinical efficacy evaluation, the tripeptide (Glu-Val-Phe) was applied in a cosmetic base (BC) at a concentration of 0.01% (w/w) and compared to a placebo base, without active (Table 2).
The study was conducted with 20 female volunteers, between 18 and 50 years old, with mixed or oily skin, oily skin with a sebum-metric index above 100, who used the product (BC-placebo or BC-tripeptide) twice a day (morning and evening) for 28 days.
The participants were referred to the Instrumental Sector for acclimatizing for at least 20 minutes, in a room with controlled temperature and humidity (T=20±2° C. and RH=50±5%). After the acclimatizing period, sebum-metrics measurements were performed on the forehead. […]
The Sebumeter photometrically measures the increase in transparency of a special plastic strip that becomes translucent when coated with sebum. […] The strip is supported by a mirror which presses it against the skin of the region to be evaluated with a fixed pressure of 10N by means of a spring. […] The strip transparency is evaluated by a photocell present in the device where the plastic strip is inserted, and the light transmission represents the amount of sebum per area and the results are expressed in absolute values (μg sebum/cm^2). […]

CC(C)[C@H](NC(=O)[C@@H](N)CCC(=O)O)C(=O)N[C@@H](Cc1ccccc1)C(=O)O [SEQ ID No. 1, H-Glu-Val-Phe-OH] (H-Glu-Val-Phe-OH)
reduction in sebum production (SEBO662AR cell model [1]): 28%
higher non-cytotoxic concentration (SEBO662AR cell model [2]): 500 µM
decrease of the average of the sebum-metric indices vs initial time (D0) ([3]; after 14 days): 31.54%
reduction of average oiliness vs initial time (D0) ([3]; after 28 days): 29.75%
